Reference: PMC7004140, “In vitro hepatotoxicity of Petasites hybridus extract (Ze 339) depends on the concentration, the cytochrome activity of the cell system, and the species used” (Phytotherapy Research, 2019)

What was measured:
Type in all cases: in vitro ADME
CYP2C8 (human) = target: T1, CYP2C8 (human) (Homo sapiens, UniProt P10632); assay: Metabolism by isolated human CYP2C8; conditions: petasins 20 μM, 60 min
T1 construct: purchased BD Gentest (Switzerland); host or cells: baculovirus expression system
T1 sequence (P10632 1-490): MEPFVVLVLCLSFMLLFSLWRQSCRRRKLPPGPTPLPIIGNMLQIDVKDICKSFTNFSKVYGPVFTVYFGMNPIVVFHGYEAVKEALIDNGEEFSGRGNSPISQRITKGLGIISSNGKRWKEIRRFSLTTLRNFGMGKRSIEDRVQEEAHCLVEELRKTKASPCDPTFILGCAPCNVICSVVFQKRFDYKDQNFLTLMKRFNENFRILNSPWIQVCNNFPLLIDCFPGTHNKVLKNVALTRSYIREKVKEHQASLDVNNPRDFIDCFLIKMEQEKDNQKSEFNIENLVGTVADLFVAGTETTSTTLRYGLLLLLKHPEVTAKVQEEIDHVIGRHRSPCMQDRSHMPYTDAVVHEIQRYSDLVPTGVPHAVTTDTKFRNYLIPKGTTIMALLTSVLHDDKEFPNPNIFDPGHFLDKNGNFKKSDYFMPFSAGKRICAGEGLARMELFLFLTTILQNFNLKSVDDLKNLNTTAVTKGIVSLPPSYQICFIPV
From the text: (§1) The metabolism of petasin, isopetasin, and neopetasin was investigated using three different S9 fractions originating from three different species (isolated from rat, dog, and human liver homogenates containing cytochrome P450 isoforms) and isolated cytochromes of two different species (human and rat; rat analogues of the respective human cytochromes were used). For the expression of the different cytochromes, a baculovirus expression system was used according to supplier's manual. The S9 fractions or respectively single P450 cytochromes were used to mimic the liver metabolism by in vitro incubation.
(§2) The assay was carried out in triplicate in 1.5 ml glass vials with a final concentration of 20 μM of petasin, isopetasin, and neopetasin. The incubation was performed in a 37°C warm water bath. S9 fractions were thawed slowly on ice. Four different approaches were pursued by testing: (a) petasin, neopetasin, and isopetasin before (0 min) and after 60 min incubations with S9 fraction; (b) petasin, neopetasin, and isopetasin without S9 fraction after 60 min incubation; (c) vehicle as negative controls; and (d) cofactors of S9 fraction after 60‐min incubation.
(§3) A mixture of NADPH regeneration systems A (20‐fold) and B (100‐fold), phosphate buffer, and H2O was added, preincubated at 37°C, and shaken gently for 5 min. Afterwards, the recommended amount between 10 and 40 pmol/ml of enzyme or enzyme mixture was added according to manufacturer's instruction and incubated for further 60 min at 37°C and gently shaken. Afterwards, the reactions were stopped by addition of acetonitrile (400 μl). For the control sample, acetonitrile was added at 0 min incubation. The samples were centrifuged for 3 min at 10,000 × g. The supernatant was transferred to high‐performance liquid chromatography vials and analyzed by ultra‐performance liquid chromatography mass spectrometry (UPLC/MS). The UPLC analysis was performed with an UPLC Acquity H Class from Waters (Waters Corporation, Switzerland) including a quaternary high‐pressure gradient pump, an automatic sample injector, and a column thermostat. […]

CYP3A2 (rat) = target: T2, CYP3A2 (rat) (Rattus norvegicus, UniProt P05183); assay: Metabolism by isolated rat CYP3A2; conditions: petasins 20 μM, 60 min
T2 construct: purchased BD Gentest (Switzerland); host or cells: baculovirus expression system
T2 sequence (P05183 1-504): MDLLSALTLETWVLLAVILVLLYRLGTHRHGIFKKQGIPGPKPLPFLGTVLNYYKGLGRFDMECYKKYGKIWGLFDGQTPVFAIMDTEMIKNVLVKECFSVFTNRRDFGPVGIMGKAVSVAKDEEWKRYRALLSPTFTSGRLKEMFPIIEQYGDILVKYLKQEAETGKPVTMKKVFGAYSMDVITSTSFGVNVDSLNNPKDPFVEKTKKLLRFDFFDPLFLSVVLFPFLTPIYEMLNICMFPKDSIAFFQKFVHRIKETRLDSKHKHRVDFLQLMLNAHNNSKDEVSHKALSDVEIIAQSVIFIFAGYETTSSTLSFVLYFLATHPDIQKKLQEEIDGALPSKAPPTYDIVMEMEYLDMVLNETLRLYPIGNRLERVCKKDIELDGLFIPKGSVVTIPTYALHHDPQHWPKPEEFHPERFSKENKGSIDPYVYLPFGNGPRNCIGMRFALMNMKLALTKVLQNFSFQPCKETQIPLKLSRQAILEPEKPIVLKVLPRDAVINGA
From the text: as §1
The assay was carried out in triplicate in 1.5 ml glass vials with a final concentration of 20 μM of petasin, isopetasin, and neopetasin. The incubation was performed in a 37°C warm water bath. S9 fractions were thawed slowly on ice. […]
A mixture of NADPH regeneration systems A (20‐fold) and B (100‐fold), phosphate buffer, and H2O was added, preincubated at 37°C, and shaken gently for 5 min. […] The supernatant was transferred to high‐performance liquid chromatography vials and analyzed by ultra‐performance liquid chromatography mass spectrometry (UPLC/MS). […]

CYP2D2 (rats) = target: T3, CYP2D2 (rats) (Rattus norvegicus, UniProt P10634); assay: Metabolism by isolated rat CYP2D2; conditions: petasins 20 μM, 60 min
T3 construct: purchased BD Gentest (Switzerland); host or cells: baculovirus expression system
T3 sequence (P10634 1-500): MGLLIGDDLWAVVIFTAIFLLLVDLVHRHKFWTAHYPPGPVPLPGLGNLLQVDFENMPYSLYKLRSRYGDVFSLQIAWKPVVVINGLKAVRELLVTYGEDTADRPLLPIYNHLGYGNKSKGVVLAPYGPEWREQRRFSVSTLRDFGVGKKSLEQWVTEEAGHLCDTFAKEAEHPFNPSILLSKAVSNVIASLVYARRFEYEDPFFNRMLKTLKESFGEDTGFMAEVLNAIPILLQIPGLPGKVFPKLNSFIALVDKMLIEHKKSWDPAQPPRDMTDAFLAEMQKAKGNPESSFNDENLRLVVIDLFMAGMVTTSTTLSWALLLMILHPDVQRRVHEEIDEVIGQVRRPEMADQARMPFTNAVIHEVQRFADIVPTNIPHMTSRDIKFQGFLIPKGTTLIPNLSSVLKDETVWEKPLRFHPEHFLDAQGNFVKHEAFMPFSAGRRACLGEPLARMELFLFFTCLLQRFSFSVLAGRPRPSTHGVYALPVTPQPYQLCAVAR
From the text: as §1, §2, §3

[1] = Incubation without S9 fraction (solvent or cofactors only, negative controls); conditions: 20 μM, 60 min, data not shown; for metabolism with cofactors of S9 fraction only (negative control): cofactor only; for metabolism with solvent (negative control): solvent only
Description: as §2
A mixture of NADPH regeneration systems A (20‐fold) and B (100‐fold), phosphate buffer, and H2O was added, preincubated at 37°C, and shaken gently for 5 min. Afterwards, the recommended amount between 10 and 40 pmol/ml of enzyme or enzyme mixture was added according to manufacturer's instruction and incubated for further 60 min at 37°C and gently shaken. Afterwards, the reactions were stopped by addition of acetonitrile (400 μl). For the control sample, acetonitrile was added at 0 min incubation. The samples were centrifuged for 3 min at 10,000 × g. The supernatant was transferred to high‐performance liquid chromatography vials and analyzed by ultra‐performance liquid chromatography mass spectrometry (UPLC/MS). The UPLC analysis was performed with an UPLC Acquity H Class from Waters (Waters Corporation, Switzerland) including a quaternary high‐pressure gradient pump, an automatic sample injector, and a column thermostat. Chromatographic separation was achieved on an Acquity BEH C18, […], 50 × 2.1 mm column (Waters, Switzerland). The mobile phase consisted of 0.1% formic acid (A) and acetonitrile (B). The initial gradient condition was 10% (B) followed by a step to 90% (B) until 6.0 min. The column temperature was adjusted to 40°C. The flow rate was 0.5 ml/min and the injection volume 5 μl. The mass spectrometry was performed in positive electrospray mode using an ACQUITY QDa mass detector (Waters Corporation, Switzerland). The single ion recording was set to 317.2 Da.

Row | Compound | extent of metabolism by CYP2C8 (human) (CYP2C8 (human)) | extent of metabolism by CYP3A2 (rat) (CYP3A2 (rat)) | extent of metabolism by CYP2D2 (rat) (CYP2D2 (rats)) | metabolism with cofactors of S9 fraction only (negative control) [1] | metabolism with solvent (negative control) [1]
1 | C/C=C(/C)C(=O)O[C@@H]1CCC2=CC(=O)C(=C(C)C)C[C@]2(C)[C@H]1C [isopetasin] | 44% | 73% | 7% | < 1% | < 1%
2 | C=C(C)[C@H]1C[C@@]2(C)C(=CC1=O)CC[C@@H](OC(=O)/C(C)=C\C)[C@@H]2C [neopetasin] | 71% | 46% | 36% | < 1% | < 1%
3 | C=C(C)[C@@H]1C[C@@]2(C)C(=CC1=O)CC[C@@H](OC(=O)/C(C)=C\C)[C@@H]2C [petasin] | 54% | – | 37% | 10% | < 1%
